The values that follow come from ChEMBL document CHEMBL1201862, “PubChem BioAssay data set” (2004).

Among the test systems are HL-60; SF-539; M14; MDA-MB-435; RXF 393; A549; HCT-15; OVCAR-4; KM12; UO-31; NCI-H460; HT-29; 786-0; NCI-H522; SN12C; SNB-19; A498; NCI-H226; HCC 2998; OVCAR-8.
Assay in all cases: NCI anticancer screen, dose series, 48 h

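Dose response: 5 concentrations. Exposure: 48 h. Format: 96-well plates. Endpoint: linear interpolation; highest concentration if not reached. GI50 marks 50% less growth.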 Active and inactive are the calls of the source. Cut-off read from the data, not from the text of the source: active = GI50 up to about 1.1 µM and inactive = higher.

Turning to `O=C(O)CCC1(C(=O)O)CCC(=O)c2ccccc21` (stereo not given), the GI50 with HL-60, in the experiment on SF-539, in the experiment with M14, with MDA-MB-435, with RXF 393 and with A549 was > 100 µM (inactive) throughout. The GI50 with HCT-15 is above 100 µM; in the experiment on OVCAR-4, > 100 µM (inactive); in the experiment with KM12 it was > 100 µM (inactive); in the experiment with UO-31, > 100 µM (inactive); with NCI-H460, > 100 µM (inactive); in the experiment with HT-29 it was > 100 µM (inactive). For the same molecule, the GI50 with 786-0, in the experiment on NCI-H522, in the experiment with SN12C, in the experiment on SNB-19, in the experiment with A498 and in the experiment on NCI-H226 was > 100 µM (inactive) in each case. Further, the GI50 with HCC 2998 and in the experiment on OVCAR-8 was > 100 µM (inactive) throughout.

Turning to `O=P1(O)c2ccccc2CSCc2ccccc21`, the GI50 in the experiment with HL-60, in the experiment on SF-539, with M14, with MDA-MB-435, with RXF 393 and in the experiment on A549 was > 100 µM (inactive) each time. Moreover, the GI50 was above 100 µM with HCT-15; > 100 µM (inactive) in the experiment on OVCAR-4; > 100 µM (inactive) with KM12; > 100 µM (inactive) in the experiment on UO-31; > 100 µM (inactive) in the experiment with NCI-H460; > 100 µM (inactive) in the experiment with HT-29. For the same molecule, the GI50 with 786-0, in the experiment with NCI-H522, with SN12C, in the experiment with SNB-19, with A498 and in the experiment on NCI-H226 was > 100 µM (inactive) throughout. Besides, the GI50 in the experiment with HCC 2998 and with OVCAR-8 was > 100 µM (inactive) throughout.

For the molecule `CCC1(O)C(=O)OCc2c1cc1n(c2=O)Cc2cc3c(N)cccc3nc2-1` (stereo not given) [RS-9-Aminocamptothecin], the GI50 with HL-60 was < 0.0128 µM (active); with SF-539, < 0.014 µM (active); in the experiment with M14, 0.0174 µM (active); in the experiment with MDA-MB-435, 0.0607 µM (active); in the experiment on RXF 393 it was 0.0447 µM (active); in the experiment with A549, 0.0354 µM (active). Further, the GI50 with HCT-15 is 0.267 µM; with OVCAR-4, 0.345 µM (active); in the experiment with KM12 it was 0.24 µM (active); with UO-31 it was < 0.0109 µM (active); in the experiment on NCI-H460 it was < 0.0106 µM (active); in the experiment on HT-29 it was 0.118 µM (active). The GI50 in the experiment with 786-0 was 0.0108 µM (active); in the experiment on NCI-H522, 0.0196 µM (active); in the experiment on SN12C, < 0.01 µM (active); in the experiment with SNB-19, < 0.0138 µM (active); in the experiment on A498 it was 0.156 µM (active); in the experiment on NCI-H226, < 0.01 µM (active). The GI50 is 0.177 µM (active) with HCC 2998 and 0.027 µM (active) in the experiment with OVCAR-8.

With `CNC(=O)OCCN1c2ccccc2Sc2ccccc21`, the GI50 was > 100 µM (inactive) in the experiment on HL-60; > 100 µM (inactive) in the experiment with SF-539; > 100 µM (inactive) in the experiment on M14; > 100 µM (inactive) in the experiment with MDA-MB-435; 19.2 µM (inactive) in the experiment with RXF 393; 87.1 µM (inactive) in the experiment with A549. Moreover, the GI50 is above 100 µM with HCT-15; > 100 µM (inactive) with OVCAR-4; > 100 µM (inactive) in the experiment on KM12; 69.2 µM (inactive) with UO-31; 86.7 µM (inactive) in the experiment with NCI-H460; > 100 µM (inactive) in the experiment on HT-29. The GI50 is > 100 µM (inactive) in the experiment with 786-0; > 100 µM (inactive) in the experiment with NCI-H522; > 100 µM (inactive) with SN12C; > 100 µM (inactive) in the experiment on SNB-19; 57.5 µM (inactive) in the experiment with A498; 47.9 µM (inactive) in the experiment on NCI-H226. Further, the GI50 in the experiment with HCC 2998 and in the experiment on OVCAR-8 was > 100 µM (inactive) in each case.

As to `Nc1nc(Cl)cc(Oc2ccc(Cl)cc2)n1`, the GI50 was > 68.9 µM (inactive) in the experiment with HL-60; > 50.7 µM (inactive) in the experiment on SF-539; > 57 µM (inactive) with M14; > 57.3 µM (inactive) in the experiment on MDA-MB-435; > 100 µM (inactive) in the experiment on RXF 393; > 100 µM (inactive) with A549. In addition, the GI50 in the experiment with HCT-15 was above 57.4 µM; in the experiment on OVCAR-4, > 53.2 µM (inactive); in the experiment on KM12, > 100 µM (inactive); in the experiment on UO-31, 29.9 µM (inactive); with NCI-H460, > 54.7 µM (inactive); in the experiment with HT-29 it was > 100 µM (inactive). Further, the GI50 was > 59 µM (inactive) with 786-0; 22.6 µM (inactive) with NCI-H522; > 51.9 µM (inactive) in the experiment on SN12C; > 53.7 µM (inactive) with SNB-19; > 47.5 µM (inactive) with A498; > 100 µM (inactive) in the experiment on NCI-H226. For the same molecule, the results for the GI50 in the experiment with HCC 2998 and in the experiment with OVCAR-8 were > 55.2 µM (inactive) and > 73.6 µM (inactive), respectively.

For `C/C=C/C(C/C=C(\C)CO[Si](C)(C)C(C)(C)C)O[Si](C)(C)C(C)(C)C` (stereo not given), the GI50 with HL-60, in the experiment with SF-539, with M14, in the experiment on MDA-MB-435, in the experiment on RXF 393 and in the experiment with A549 was > 100 µM (inactive) each time. Besides, the GI50 in the experiment on HCT-15 was above 100 µM; in the experiment with OVCAR-4 it was > 100 µM (inactive); in the experiment on KM12, > 100 µM (inactive); in the experiment with UO-31, > 100 µM (inactive); in the experiment on NCI-H460, > 100 µM (inactive); in the experiment with HT-29 it was > 100 µM (inactive). Also, the GI50 with 786-0, with NCI-H522, in the experiment on SN12C, in the experiment with SNB-19, in the experiment on A498 and in the experiment with NCI-H226 was > 100 µM (inactive) each time. The GI50 with HCC 2998 and with OVCAR-8 was > 100 µM (inactive) throughout.

Turning to `CCN(CC)CCC1CCCCN1CC(=O)N1c2cc(Cl)ccc2NC(=O)CC1C` (stereo not given), the GI50 with HL-60, in the experiment with SF-539, with M14, in the experiment on MDA-MB-435, in the experiment on RXF 393 and in the experiment with A549 was > 100 µM (inactive) each time. For the same molecule, the GI50 with HCT-15 is above 100 µM; with OVCAR-4 it was > 100 µM (inactive); in the experiment with KM12 it was > 100 µM (inactive); in the experiment with UO-31 it was > 100 µM (inactive); with NCI-H460, > 100 µM (inactive); in the experiment on HT-29, > 100 µM (inactive). The GI50 in the experiment with 786-0, in the experiment with NCI-H522, with SN12C, in the experiment with SNB-19, in the experiment with A498 and with NCI-H226 was > 100 µM (inactive) throughout. The GI50 in the experiment on HCC 2998 and with OVCAR-8 was > 100 µM (inactive) in each case.
